Measurements taken from paper PMC5954133, “Functional Characterization of a Small Alarmone Hydrolase in Corynebacterium glutamicum” (Frontiers in Microbiology, 2018).

Target: T1, RelSCg (Corynebacterium glutamicum, UniProt Q8NNR8)
T1 construct: gene Cgl2119; full-length; expressed in E. coli ER2566
T1 sequence (Q8NNR8 1-341): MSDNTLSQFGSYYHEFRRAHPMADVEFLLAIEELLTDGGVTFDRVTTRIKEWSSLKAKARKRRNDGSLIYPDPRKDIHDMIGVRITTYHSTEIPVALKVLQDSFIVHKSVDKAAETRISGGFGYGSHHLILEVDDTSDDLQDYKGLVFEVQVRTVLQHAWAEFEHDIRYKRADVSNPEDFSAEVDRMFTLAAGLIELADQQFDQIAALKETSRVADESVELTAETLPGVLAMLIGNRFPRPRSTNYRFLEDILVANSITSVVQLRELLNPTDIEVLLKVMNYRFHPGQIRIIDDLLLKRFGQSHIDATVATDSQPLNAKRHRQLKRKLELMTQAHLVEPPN
Assay: preparative pyrophosphorylation, product identified by HPLC-MS
Assay type: biochemical
Conditions: 12 mM ATP, 10 mM MgCl2, 50 mM Tris-HCl pH 8, 16 h

Compound	preparative pyrophosphorylation, product identified by HPLC-MS
Nc1nc2c(ncn2[C@@H]2O[C@H](COP(=O)(O)OP(=O)(O)O)[C@@H](O)[C@H]2O)c(=O)[nH]1 [GDP]	produced by RelSCg-catalyzed pyrophosphorylation of GMP, GDP or GTP
Nc1nc2c(ncn2[C@@H]2O[C@H](COP(=O)(O)O)[C@@H](O)[C@H]2O)c(=O)[nH]1 [GMP]	produced by RelSCg-catalyzed pyrophosphorylation of GMP, GDP or GTP
